Measured values taken from patent publication US20160303009A1, “HAIR CARE COMPOSITION” (CONOPCO, INC., D/B/A UNILEVER, priority 2013, published 2016).

System: trypsin
Assay: Trypsin activity, fluorescence assay (EnzChek Protease Assay Kit E6639)
Format: biochemical
Details: trypsin 100 μg/ml, 50 mM Tris-HCl pH 8.0
Description: Typsin activity was assessed using a commercial assay employing fluorescence measurement (EnzChek® Protease Assay Kit E6639 from Molecular Probes). The assayed solutions contained trypsin (100 μg/ml) and various amounts of the zinc salts in 50 mM Tris-HCl (pH 8.0).

| Compound | Protease inhibition (salt concentration 0.0001 wt %) [%] | Protease inhibition (salt concentration 0.001 wt %) [%] | Protease inhibition (salt concentration 0.01 wt %) [%] | Protease inhibition (salt concentration 0.1 wt %) [%] | Protease inhibition (salt concentration 1 wt %) [%] |
| --- | --- | --- | --- | --- | --- |
| O.O.O.O.O.O.O.O=S(=O)([O-])[O-].[Zn+2] [Zinc Sulfate Heptahydrate] | 4 | 14 | 33 | 92 | 93 |
| [Cl-].[Cl-].[Zn+2] [Zinc Chloride] | 7 | 20 | 69 | 93 | 96 |
| Zinc Gluconate | −4 | 10 | 28 | 94 | 94 |
